Experimental data published in US10870638B2, “Pyridazinone compound or its salt, and herbicide containing it” (ISHIHARA SANGYO KAISHA, LTD., priority 2016, dated 2020).

Legend:
Type in all cases: in vivo
Conditions in all cases: active ingredient amount 31 g/ha, 14th day after application
[1] = system: barnyardgrass (Echinochloa crus-qalli L.); experiment: Test Example 1: foliar treatment, growth inhibition rate on 14th day
Outline: (§1)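 Using a small sprayer, formulated compound in water (0.1 vol % surfactant, 1,000 L/ha) was applied to seedlings grown from seed in upland soil. Fourteen days on, growth state was observed and expressed as percent inhibition from 0 to 100.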

corn (Zea mays L.) [2] = experiment: as above
Outline: as §1

[3] = system: crabgrass (Digitaria sanquinalis L.); experiment: as above
Outline: as §1

[4] = system: green foxtail (Setaria viridis L.); experiment: as above
Outline: (§2)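 Visual 0–100% inhibition scoring (100 = complete kill) at 14 days after foliar treatment of soil-grown seedlings at species-specific leaf stages, with the compound sprayed as a wettable powder or emulsifiable concentrate dilution.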

[5] = system: italian ryegrass (Lolium multiflorum Lam.); experiment: as above
Outline: as §1

[6] = system: redroot pigweed (Amaranthus retroflexus L.); experiment: as above
Outline: as §1

rice (Oryza sativa L.) [7] = experiment: as above
Outline: as §2

[8] = system: soybean (Glycine max Merr.); experiment: as above
Outline: as §2

[9] = system: wheat (Triticum aestivum L.); experiment: as above
Outline: as §1

[10] = system: wild oat (Avena fatua L.); experiment: as above
Outline: as §2

[11] = system: barnyardgrass (Echinochloa crus-qalli L.); experiment: Test Example 2: soil application on the day after sowing, growth inhibition rate on 14th day
Source text: (§3) Upland field soil was put into a 1/300,000 hectare pot, and seeds of various plants (barnyardgrass (Echinochloa crus-qalli L.), crabgrass (Digitaris sanquinalis L.), green foxtail (Setaria viridis L.), redroot pigweed (Amaranthus retroflexus L.), prickly sida (Sida spinosa L.), velvetleaf (Abutilon theophrasti MEDIC.), rice (Oryza sativa L.), corn (Zea mays L.), wheat (Triticum aestivum L.), soybean (Glycine max Merr.)) were sown. On the day after sowing, wettable powders or emulsifiable concentrates of the compounds of the present invention prepared in accordance with a conventional preparation method, were weighed so as to achieve the prescribed active ingredient amounts, and diluted with water in an amount corresponding to 1,000 liters per 1 hectare, followed by soil application by a small sprayer.
(§4) On the 14th day after the application, the state of growth of the respective plants was visually observed, and the herbicidal effect was evaluated by a growth inhibition rate (%) of 0 (equivalent to the non-treated area) to 100 (complete kill).

corn (Zea mays L.) [12] = experiment: as above
Source text: as §3, §4

[13] = system: crabgrass (Digitaris sanquinalis L.); experiment: as above
Source text: as §3, §4

[14] = system: green foxtail (Setaria viridis L.); experiment: as above
Source text: as §3, §4

[15] = system: prickly sida (Sida spinosa L.); experiment: as above
Source text: as §3, §4

[16] = system: redroot pigweed (Amaranthus retroflexus L.); experiment: as above
Source text: as §3, §4

rice (Oryza sativa L.) [17] = experiment: as above
Source text: as §3, §4

[18] = system: soybean (Glycine max Merr.); experiment: as above
Source text: as §3, §4

[19] = system: velvetleaf (Abutilon theophrasti MEDIC.); experiment: as above
Source text: as §3, §4

[20] = system: wheat (Triticum aestivum L.); experiment: as above
Source text: as §3, §4

SMILES	Growth inhibition rate (%) Barnyardgrass [1] [%]	Growth inhibition rate (%) Corn (corn (Zea mays L.) [2]) [%]	Growth inhibition rate (%) Crabgrass [3] [%]	Growth inhibition rate (%) Green foxtail [4] [%]	Growth inhibition rate (%) Italian ryegrass [5] [%]	Growth inhibition rate (%) Redroot pigweed [6] [%]	Growth inhibition rate (%) Rice (rice (Oryza sativa L.) [7]) [%]	Growth inhibition rate (%) Soybean [8] [%]	Growth inhibition rate (%) Wheat [9] [%]	Growth inhibition rate (%) Wild oat [10] [%]	Growth inhibition rate (%) Barnyardgrass [11] [%]	Growth inhibition rate (%) Corn (corn (Zea mays L.) [12]) [%]	Growth inhibition rate (%) Crabgrass [13] [%]	Growth inhibition rate (%) Green foxtail [14] [%]	Growth inhibition rate (%) Prickly sida [15] [%]	Growth inhibition rate (%) Redroot pigweed [16] [%]	Growth inhibition rate (%) Rice (rice (Oryza sativa L.) [17]) [%]	Growth inhibition rate (%) Soybean [18] [%]	Growth inhibition rate (%) Velvetleaf [19] [%]	Growth inhibition rate (%) Wheat [20] [%]
CCc1ccc(Oc2ncc(C(F)(F)F)cc2Cl)cc1-c1c(O)cnn(CC)c1=O [1-173]	100	99	100	100	95	0	60	0	35	100	100	50	100	100	0	0	60	0	0	0
CCc1ccc(Sc2ncc(C(F)(F)F)cc2Cl)cc1-c1c(O)c(C)nn(C)c1=O [1-4]	99	93	95	100	95	10	20	35	10	99	100	0	99	98	0	0	40	0	0	0
Cc1ccc(Oc2cnc3cc(Cl)ccc3n2)cc1-c1c(O)c(C)nn(C)c1=O [Compound 3-1]	100	10	99	100	100	50	100	0	98	98	99	20	–	–	0	0	40	–	0	25
CC(=O)Oc1cnn(C)c(=O)c1-c1cc(Oc2nc3cc(Cl)ccc3o2)ccc1C [Compound 2-174]	100	95	93	93	95	–	93	0	93	88	20	20	80	0	0	0	0	0	0	0
Cc1ccc(Oc2cnc3cc(Cl)ccc3n2)cc1-c1c(O)c(C)nn(C)c1=O [Compound 2-7]	100	10	–	100	100	50	100	0	98	98	99	20	99	100	0	0	40	0	0	25
CCn1ncc(O)c(-c2cc(Oc3nc4ccc(Cl)cc4o3)ccc2C)c1=O [Compound 2-167]	100	90	99	100	80	0	60	30	25	45	40	0	99	100	0	–	0	0	0	0
